Where two headings read alike, the source gives them in different places.
What was measured:
NUGC-3 cells = experiment: NUGC-3 cell proliferation assay (CTG, 7 days); type: cell-based, human; conditions: Homo sapiens, NUGC-3, 168 h
Procedure, shortened: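 Cells (200/well) in 1640 medium with 10% serum exposed to 10-point, 3-fold DMSO dilutions (duplicates) for 7 days at 37°C. Viability read by CellTiter-Glo luminescence; % inhibition normalized to DMSO and blank, IC50 from variable-slope nonlinear fit.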

[1] = Pharmacokinetic study in SD rats; type: in vivo; conditions: rat, plasma; for AUC(0-t) at 24 h / AUC(0-t): read-out: AUC0-24h
Protocol: On the day of administration, the test sample was prepared using a 2% HPC + 5% solutol aqueous solution vehicle formula, and the drug solution was prepared and kept ready for use.
The PO group was given the designated dose. The animals in the oral administration group were fasted overnight, allowed free access to water, and returned to food 3 hours after administration.
The animals were weighed before administration, and the dose was calculated based on the body weight. The drug was administered once via PO on the day of administration. After administration in the PO group, blood was collected from the jugular vein at 0.083 h, 0.25 h, 0.5 h, 1.0 h, 2.0 h, 4.0 h, 6.0 h, 8.0 h and 24 h, about 200 µL each time, placed in EDTA-K2 anticoagulation blood collection tubes, centrifuged at 4000 rpm for 10 min (4°C), and plasma was separated within 1 h. The plasma was drawn into labeled EP tubes (the label should at least indicate the subject code, animal number, collection time, collection date, etc.), and stored at -80°C for testing. The process from blood collection to centrifugation was carried out in ice bath. The concentration of the test sample in SD rat plasma was detected using validated LC-MS/MS.

[2] = tested on: NUGC-3 human gastric cancer subcutaneous xenograft; experiment: Efficacy in NUGC-3 human gastric cancer subcutaneous xenograft model; type: in vivo, BALB/c Nude mouse; conditions: PO, 19 days
Protocol: NUGC-3 cells were cultured in RPMI-1640 medium containing 10% FBS. NUGC-3 cells in the exponential growth phase were collected, the total amount of cells required was calculated, the cells were re-suspended in PBS to a suitable concentration and then an equal volume of Matrigel was added for subcutaneous tumor seeding in BALB/c Nude mice. The concentration of the cell suspension was 5x10^6/0.1 mL.
0.1 mL (5×10^6 NUGC-3 cells) of cell suspension (PBS : Matrigel = 1:1, V/V) was seeded subcutaneously on the right back of each mouse. When the tumor grew to have an average volume of 128.4 mm^3, group-based drug administration began (vehicle: 0.2% HPC + 0.5% Tween 80), and the average tumor volume of the enrolled animals was 146.1 mm^3.
Table 11 Route, dose and regimen of administration in the subcutaneous xenograft model

BXPC-3 cells = experiment: BXPC-3 3D cell proliferation assay (methylcellulose, CTG, 7 days); type: cell-based; conditions: Homo sapiens, 168 h, drug treatment for 7 days
Protocol: 1 g of methylcellulose was weighed and placed into a glass ware and autoclaved. After cooling, 100 mL of the corresponding culture medium was added, the mixture was mixed vigorously, and stirred on a 4°C magnetic stirrer; the mixture was completely dissolved after 48 h and stored at 4°C.
The cells were resuscitated with the corresponding culture medium, and were maintained to grow to the logarithmic growth phase. The cell suspension was collected and centrifuged at 1000 rpm for 5 min. After centrifugation was completed, the supernatant was removed and the cells were re-suspended with an appropriate amount of culture medium. […]
After adding 10 µL of culture medium containing the vehicle to each well, the CTG plate was read. […] The cell plate was placed at room temperature for 10 min to stabilize the luminescent signal, and the luminescent value was read using EnVision. […]
The CTG reagent was thawed and the cell plate was equilibrated to room temperature for 30 min. […] The cell plate was placed at room temperature for 10 min to stabilize the luminescent signal, and the luminescent value was read using EnVision.
Cell viability was calculated using the following formula: (Vsample- VBlank) /(Vvehicle control- VBlank) ×100%. […] The S-shaped dose-survival curve was plotted and IC50 calculated by GraphPad Prism software using non-linear regression model.

[3] = NUGC-3 cell proliferation, 7 days, CTG, read-out: IC50

SMILES	IC50 (NUGC-3 cells; [3]) [µM]	Cmax ([1]; 50 mg/kg, po 50 mpk) [ng/mL]	Cmax ([1]; 300 mg/kg, po 300 mpk) [ng/mL]	IC50 (NUGC-3 cells) [µM]	IC50 (BXPC-3 cells) [µM]	further results
CN1CC[C@@H](Nc2cccc3c(CC(F)(F)F)c(C#CCNC(=O)c4cnn(C(C)(C)C)c4)nn23)[C@@H](F)C1 [Compound 001, 1-tert-butyl-N-[3-(7-{[(3S,4R)-3-fluoro-1-methylpiperidin-4-yl]amino}-3-(2,2,2-trifluoroethyl)pyrazolo[1,5-a]pyridin-2-yl)prop-2-yn-1-yl]-1H-pyrazole-4-carboxamide]	0.387					
CN1CC[C@@H](Nc2cccc3c(CC(F)(F)F)c(C#CCNC(=O)c4cnn(C(C)(C)C)c4N)nn23)[C@@H](F)C1 [Compound 047]		13200	32800	0.129	0.18	AUC(0-t) at 24 h ([1]; 50 mg/kg, po 50 mpk): 113 µg·h/mL; AUC(0-t) at 24 h ([1]; 300 mg/kg, po 300 mpk): 431 µg·h/mL; tumor volume inhibition rate TGI ([2]; 50 mpk, BID): 68%; tumor volume inhibition rate TGI ([2]; 100 mpk, BID): 93%; tumor volume inhibition rate TGI ([2]; 150 mpk, BID): 103%; tumor volume inhibition rate TGI ([2]; 150 mpk, QD): 91%
CCn1ncc(C(=O)NCC#Cc2nn3c(N[C@@H]4CCN(C)C[C@@H]4F)cccc3c2CC(F)(F)F)c1N [Compound 261, 5-amino-1-ethyl-N-[3-(7-{[(3S,4R)-3-fluoro-1-methylpiperidin-4-yl]amino}-3-(2,2,2-trifluoroethyl)pyrazolo[1,5-a]pyridin-2-yl)prop-2-yn-1-yl]-1H-pyrazole-4-carboxamide]				0.172		
CNC(=O)c1ccc(NCC#Cc2cc3c(N[C@@H]4CCN(C)C[C@@H]4F)cccc3n2CC(F)(F)F)c(OC)c1 [Control compound, reference compound]	0.384	11500	25400		0.769	AUC(0-t) ([1]; 50 mg/kg, po 50 mpk): 148 µg·h/mL; AUC(0-t) ([1]; 300 mg/kg, po 300 mpk): 416 µg·h/mL; tumor volume inhibition rate TGI ([2]; 50 mpk, QD): 52%; tumor volume inhibition rate TGI ([2]; 100 mpk, QD): 77%

— patent publication EP4737449A1 (Changchun Genescience Pharmaceutical Co., Ltd., priority 2023, dated 2025)
